Laboratory results taken from ChEMBL document CHEMBL3259781 (J Med Chem, 2014).
Values after ≈ are worked out from the molar mass of the structure shown. Values joined by “and” are separate entries in the source; they are usually repeats but may differ in a detail not shown here. Equal entries are not always repeated. One block for each compound: values may come before it.

What was measured:
Rattus norvegicus [1] = species: Rattus norvegicus; experiment: Anticataleptic activity in rat assessed as minimum efficacious dose after 4 hrs; assay type: functional; conditions: read-out: MED
Adenosine receptor A3 [2] = target: T1, Adenosine receptor A3 (Homo sapiens, UniProt P0DMS8)
T1 sequence (P0DMS8 whole entry): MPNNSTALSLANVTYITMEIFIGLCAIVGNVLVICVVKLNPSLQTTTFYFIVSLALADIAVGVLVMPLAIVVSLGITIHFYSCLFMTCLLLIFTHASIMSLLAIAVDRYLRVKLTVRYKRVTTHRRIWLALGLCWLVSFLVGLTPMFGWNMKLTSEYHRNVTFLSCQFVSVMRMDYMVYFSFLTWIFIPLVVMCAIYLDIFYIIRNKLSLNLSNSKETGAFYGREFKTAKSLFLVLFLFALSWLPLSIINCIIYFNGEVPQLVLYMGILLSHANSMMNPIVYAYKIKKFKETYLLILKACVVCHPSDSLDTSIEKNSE

Rattus norvegicus [3] = experiment: Anticataleptic activity in rat assessed as inhibition at 1 mg/kg, po after 1 hr; assay type: functional
Rattus norvegicus [4] = experiment: Anticataleptic activity in rat assessed as inhibition at 1 mg/kg, po after 4 hrs; assay type: functional
Adenosine receptor A2a [5] = target: T2, Adenosine receptor A2a (Homo sapiens, UniProt P29274)
[6] = Ratio of drug level from brain to plasma in rat; assay type: ADME; conditions: read-out: BPR
Rattus norvegicus [7] = species: Rattus norvegicus; experiment: Anticataleptic activity in rat assessed as minimum efficacious dose after 1 hr; assay type: functional; conditions: read-out: MED
Homo sapiens = species: Homo sapiens; experiment: Selectivity ratio of Ki for human recombinant adenosine A1 receptor to Ki for human recombinant adenosine receptor A2a
[8] = AUC in rat at 3 mg/kg, po; assay type: ADME, organism-based; parameters: dose 3 mg/kg, route oral; conditions: plasma
Adenosine receptor A1 = target: T3, Adenosine receptor A1 (Homo sapiens, UniProt P30542)
T3 sequence (P30542 whole entry): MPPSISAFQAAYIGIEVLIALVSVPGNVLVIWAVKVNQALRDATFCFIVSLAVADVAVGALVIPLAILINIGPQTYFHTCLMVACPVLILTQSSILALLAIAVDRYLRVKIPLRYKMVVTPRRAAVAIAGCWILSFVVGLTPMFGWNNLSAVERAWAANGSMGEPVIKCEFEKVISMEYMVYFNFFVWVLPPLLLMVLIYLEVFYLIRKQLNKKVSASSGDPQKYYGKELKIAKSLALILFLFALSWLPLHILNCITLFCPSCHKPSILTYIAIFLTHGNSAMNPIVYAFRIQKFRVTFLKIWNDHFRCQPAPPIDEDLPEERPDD

Adenosine receptor A2b = target: T4, Adenosine receptor A2b (Homo sapiens, UniProt P29275)
T4 sequence (P29275 whole entry): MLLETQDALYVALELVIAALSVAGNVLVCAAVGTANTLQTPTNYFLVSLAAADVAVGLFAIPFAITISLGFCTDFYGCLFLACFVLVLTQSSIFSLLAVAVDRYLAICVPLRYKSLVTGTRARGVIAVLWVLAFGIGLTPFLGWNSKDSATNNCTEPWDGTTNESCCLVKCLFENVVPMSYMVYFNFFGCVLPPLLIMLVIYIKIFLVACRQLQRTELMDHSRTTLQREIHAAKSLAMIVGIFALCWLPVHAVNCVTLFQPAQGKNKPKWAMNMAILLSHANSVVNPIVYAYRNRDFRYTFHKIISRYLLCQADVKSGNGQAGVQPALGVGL

Adenosine receptor A2a [9] = target: T2, Adenosine receptor A2a; remark: listed apart in the source
Adenosine receptor A2a [10] = target: T5, Adenosine receptor A2a (Rattus norvegicus, UniProt P30543); experiment: Binding affinity to adenosine receptor A2a in rat striatum; assay type: tissue-based
Mus musculus = experiment: Anticataleptic activity in mouse assessed as inhibition of haloperidol-induced catalepsy at 10 mg/kg, po; assay type: functional
[11] = Solubility of the compound at pH 7.4; assay type: physicochemical; conditions: buffer
Plasma = experiment: Drug level in rat plasma measured per ml at 10 mg/kg, po; assay type: ADME, organism-based; parameters: dose 10 mg/kg, route oral; conditions: in vivo
Brain = experiment: Drug level in rat brain measured per gram at 10 mg/kg, po; assay type: ADME, organism-based; parameters: dose 10 mg/kg, route oral; conditions: in vivo
Rattus norvegicus [12] = species: Rattus norvegicus; experiment: Selectivity ratio of Ki for rat striatal adenosine A1 receptor to Ki for rat recombinant adenosine receptor A2a
Rattus norvegicus [13] = experiment: Anticataleptic activity in rat assessed as inhibition of haloperidol-induced catalepsy at 3 mg/kg, po after 30 mins; assay type: functional; conditions: 0.5 h
[14] = Plasma clearance in dog; assay type: ADME, organism-based, Canis lupus familiaris
[15] = Volume of distribution in rat; assay type: ADME, organism-based; conditions: in vivo
[16] = Volume of distribution in dog; assay type: ADME, organism-based, Canis lupus familiaris; conditions: in vivo
[17] = Half life in rat; assay type: ADME, organism-based; conditions: in vivo
[18] = Plasma clearance in rat; assay type: ADME, organism-based
[19] = Half life in dog; assay type: ADME, organism-based, Canis lupus familiaris; conditions: in vivo
Adenosine receptor A2a [20] = target: T5, Adenosine receptor A2a
Adenosine receptor A3 [21] = target: T6, Adenosine receptor A3 (Rattus norvegicus, UniProt P28647); experiment: Inhibition of rat recombinant adenosine A3 receptor
T6 sequence (P28647 whole entry): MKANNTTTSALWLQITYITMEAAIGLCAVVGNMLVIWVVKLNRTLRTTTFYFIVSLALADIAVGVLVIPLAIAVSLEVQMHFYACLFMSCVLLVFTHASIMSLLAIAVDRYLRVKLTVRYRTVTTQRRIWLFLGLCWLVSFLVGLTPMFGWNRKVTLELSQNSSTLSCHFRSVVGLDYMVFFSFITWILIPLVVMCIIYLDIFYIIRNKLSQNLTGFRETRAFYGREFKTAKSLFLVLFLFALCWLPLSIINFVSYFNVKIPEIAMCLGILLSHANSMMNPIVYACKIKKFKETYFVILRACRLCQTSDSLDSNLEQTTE

[22] = Ratio of drug level from brain to plasma in iv dosed rat after 0.5 hrs; assay type: ADME, organism-based; conditions: read-out: BPR
Rattus norvegicus [23] = species: Rattus norvegicus; experiment: Anticataleptic activity in rat assessed as inhibition of haloperidol-induced catalepsy after 1 hr; assay type: functional
Rattus norvegicus [24] = species: Rattus norvegicus; experiment: Anticataleptic activity in rat assessed as inhibition of haloperidol-induced catalepsy after 2 hrs; assay type: functional
Rattus norvegicus [25] = species: Rattus norvegicus; experiment: Systemic vasodilation in rat; assay type: functional

T2 sequence (P29274 whole entry): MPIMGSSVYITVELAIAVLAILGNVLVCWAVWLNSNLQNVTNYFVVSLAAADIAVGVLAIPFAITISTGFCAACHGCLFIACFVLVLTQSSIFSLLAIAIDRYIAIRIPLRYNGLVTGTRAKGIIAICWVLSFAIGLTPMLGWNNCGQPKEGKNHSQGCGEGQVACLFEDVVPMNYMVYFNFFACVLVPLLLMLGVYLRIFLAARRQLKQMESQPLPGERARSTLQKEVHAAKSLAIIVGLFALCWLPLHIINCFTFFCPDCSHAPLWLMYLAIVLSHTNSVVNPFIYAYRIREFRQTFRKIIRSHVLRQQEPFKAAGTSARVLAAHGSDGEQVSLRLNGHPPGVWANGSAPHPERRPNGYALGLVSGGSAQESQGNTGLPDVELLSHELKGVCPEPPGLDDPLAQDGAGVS
T5 sequence (P30543 whole entry): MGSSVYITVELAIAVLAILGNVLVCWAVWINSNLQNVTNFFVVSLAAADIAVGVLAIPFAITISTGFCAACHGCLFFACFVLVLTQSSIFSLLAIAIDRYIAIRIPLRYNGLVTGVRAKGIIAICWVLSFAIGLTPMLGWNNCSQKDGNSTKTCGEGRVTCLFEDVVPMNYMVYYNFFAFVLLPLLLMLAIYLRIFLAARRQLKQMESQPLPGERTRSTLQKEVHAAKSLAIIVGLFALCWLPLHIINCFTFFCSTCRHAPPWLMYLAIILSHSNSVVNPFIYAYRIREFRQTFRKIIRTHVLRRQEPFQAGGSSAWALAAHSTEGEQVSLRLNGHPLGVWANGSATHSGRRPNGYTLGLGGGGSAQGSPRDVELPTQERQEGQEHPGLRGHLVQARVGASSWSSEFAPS

SMILES: CCn1nnc([C@H]2O[C@@H](n3cnc4c(N)nc(N[C@H](CO)Cc5ccccc5)nc43)[C@H](O)[C@@H]2O)n1 [GW-328267]
EC50 (Adenosine receptor A2a [9]): 9 nM

SMILES: COC1CCN(c2cccc(-c3cc(NC(C)=O)nc(-n4nc(C)cc4C)n3)n2)CC1
inhibition in vivo at 10 mg/kg (Mus musculus): 88%
solubility [11]: 30 µg/mL (≈ 71.2 µM)
Cp (Plasma): 150 ng/mL
Ki (Adenosine receptor A2a [5]): 0.4 nM
Ratio Ki (Homo sapiens): 193
Drug uptake (Brain): 560 ng/g
Ki (Adenosine receptor A1): 77.2 nM

SMILES: Nc1nc(N2CCN3CCC[C@@H]3C2)cc2nc(-c3ccco3)nn12
Ratio Ki (Rattus norvegicus [12]): 17
inhibition in vivo at 3 mg/kg (Rattus norvegicus [13]): > 50%

SMILES: C#CCn1c(=O)c2c(nc(/C=C/c3cccc(OC)c3)n2C)n(CCCO)c1=O
Ki (Adenosine receptor A2a [20]): 5 nM
Ki (Adenosine receptor A3 [21]): > 10000 nM
Ki (Adenosine receptor A2b): 2900 nM

SMILES: Cc1cc(-c2nnc(N)nc2-c2ccccc2)cc(C(F)(F)F)n1
Kp at 0.5 h [22]: 3.2
ED50 (Rattus norvegicus [23]): 0.2 mg/kg
ED50 (Rattus norvegicus [24]): 0.2 mg/kg
Ki (Adenosine receptor A1): 31 nM

SMILES: Nc1nc(N/N=C/C2CCCCC2)nc2c1ncn2[C@@H]1O[C@H](CO)[C@@H](O)[C@H]1O [BINODENOSON]
ED50 (Rattus norvegicus [25]): 0.31 mg

More lines, main results first:

Ki (Adenosine receptor A3 [2]): > 1000 nM
Ki (Adenosine receptor A2a [5]): 0.6 nM
Kp [6]: 1
Ratio Ki (Homo sapiens): > 1660 and 1340
AUC [8]: 1560 ng·h/mL
Ki (Adenosine receptor A1): > 996 nM
Ki (Adenosine receptor A2b): > 1700 nM
SMILES: COCCOc1ccc(N2CCN(CCn3ncc4c3nc(N)n3nc(-c5ccco5)nc43)CC2)cc1 [PRELADENANT]
minimal effective dose (Rattus norvegicus [1]): 0.3 mg/kg
inhibition (INH) (Rattus norvegicus [3]; 1 mg/kg): 77%
inhibition in vivo at 1 mg/kg (Rattus norvegicus [3]; Rattus norvegicus, po, 1 h): 75%
inhibition (INH) (Rattus norvegicus [4]; 1 mg/kg): 70%
inhibition in vivo at 1 mg/kg (Rattus norvegicus [4]; Rattus norvegicus, po, 4 h): 80%
minimal effective dose (Rattus norvegicus [7]): 0.3 mg/kg

Ki (Adenosine receptor A3 [2]): 1200 nM
Kd (Adenosine receptor A2a [10]): 0.7 nM
SMILES: Nc1nc2c(cnn2CCc2ccccc2)c2nc(-c3ccco3)nn12 [SCH-58261]

clearance [14]: 8 mL/min/kg
Vd [15]: 1.4 L/kg
Vd [16]: 1.2 L/kg
half-life [17]: 4 h
clearance [18]: 11 mL/min/kg
half-life [19]: 2.2 h
Ki (Adenosine receptor A1): 1350 nM
SMILES: COc1ccc(N2CCOCC2)c2sc(NC(=O)N3CCC(C)(O)CC3)nc12 [TOZADENANT]
